pKd: −log10 of the molar value.
Target: fibrils of Aβ40 and Aβ42
Experiment: Inhibition of N-[^3H-methyl]6-OH-BTA-1 ([^3H]PIB) binding to β-amyloid fibrils, determination of Ki
Design: species or system Human
Conditions: radioligand used for Ki calculation; [L] 4 nM
Description: Human Aβ40 and Aβ42 peptides (Bachem) were incubated at 0.5 mg/ml in a solution of 10 mM Na2HPO4, 1 mM EDTA (pH 7.4) at 37° C. for 48 h. The formation of fibrils was confirmed by microscopy and binding of [^3H]6-OH-BTA-1 ([^3H]PIB). Fibrils were either used immediately or aliquoted and subsequently stored at −80° C. until use. Solutions of the test substances (>95% purity according to analytical HPLC) or 6-OH-BTA-1 (>95% purity according to analytical HPLC; ABX Biochemicals, Radeberg, Germany) and N—[^3H-methyl]6-OH-BTA-1 were prepared as 1-10 mM dimethyl sulfoxide (DMSO) stocks before dilution into assay buffer. The maximum final concentration of DMSO in the assays was 1%. All assays were performed in 10 mM Na2HPO4. The incubation was performed at 25° C. for 180 min. The bound and free fractions were separated by vacuum filtration through GF/B glass filters (Whatman, Maidstone, UK) using a Perkin Elmer harvester (PerkinElmer, 96 Micro B Filtermat) followed by 6×0.2 ml washes with ice cold phosphate buffer. Filters containing the bound ligand were counted with a liquid scintillation counter (Wallac Trilux, 1450 Microbeta). […] The inhibition of [^3H]PIB binding was measured for five different concentrations of the test compound in question, performed in duplicates.

pKd: 8.38
SMILES: CNc1ccc(-c2nc3ccc(O)cc3s2)cc1 [[^3H]PIB, N-[^3H-methyl]6-OH-BTA-1]
